Assay [1] concerns human pulmonary arterial smooth muscle cells from patients with idiopathic pulmonary arterial hypertension (IPAH HPASMC). The assay can be described thus: IPAH HPASMC proliferation assay. Format: cell-based. Particulars: for inhibition at 1 µM: Homo sapiens; for inhibition at 1 µM / effect on proliferation (in words) / inhibition of proliferation normalized to FBS-induced growth / effect of combined treatment versus single agents (in words): IPAH HPASMC; for effect on proliferation (in words): concentrations up to 1 uM. On the procedure: (§1) Primary cultures of human pulmonary arterial smooth muscle cells were derived from distal blood vessels taken from lungs harvested from patients with idiopathic pulmonary arterial hypertension (IPAH) who had been treated with iloprost or a combination of epoprostenol and bosentan for at least 1.4 years. Cells were cultured for 24 hours in 6-well plates in a solution of human smooth muscle basal medium (SMBM; TCS Cellworks, UK) with 9% fetal bovine serum (FBS; Invitrogen, US) and penicillin-streptomycin (PenStrep; 50 units/mL; Invitrogen, US). The incubating solution was then changed to PenStrep in SMBM and the cells were allowed to incubate for another 48 hours. Test compounds were administered to the test wells as DMSO solutions with FBS (FBS and DMSO or SMBM were administered to the control wells). After 96 hours of incubation, the cells were trypsinized (0.05% trypsin/EDTA; Invitrogen, US) and 20 uL of cell suspension was added to 20 uL of Accustain solution T and Accustain solution N (Labtech, UK). The cells were counted and their viability assessed using an ADAM Automated Cell Counter (Digital Bio, Korea). Results were expressed in cell number per mL and percent growth compared to FBS-induced growth alone.

Assay [2] concerns human pulmonary arterial smooth muscle cells from healthy patients (normal HPASMC). Kind of assay: Normal HPASMC proliferation assay. It is filed as cell-based. Particulars: for inhibition at 1 µM: Homo sapiens, read-out: inhibition of proliferation normalized to FBS-induced growth; for effect on proliferation (in words): normal HPASMC, 1 pM to 1 uM. The procedure: as §1
As a control, primary cultures of human pulmonary arterial smooth muscle cells were derived from distal blood vessels taken from lungs harvested from healthy patients according to procedure described in Example 1. Treprostinil sodium was tested in these cells under the conditions described in Example 1 at concentrations of 1 pM, 10 pM, 100 pM, 1 nM, 10 nM, 100 nM, and 1 uM. The experiment was repeated four times and the results were averaged.

In assay [3] the test system is human lung fibroblasts from patients with ideopathic pulmonary fibrosis (IPF) with secondary pulmonary arterial hypertension (PAH). The assay can be described thus: Fibroblast proliferation assay. Format: cell-based. Particulars: for effect on proliferation (in words): lung fibroblasts from IPF patients with secondary PAH, 1 pM to 1 uM. On the procedure: as §1
(§2) Using the procedure described in Example 1, primary cultures of human lung fibroblasts were derived from lungs harvested from patients with ideopathic pulmonary fibrosis (IPF) with secondary pulmonary arterial hypertension (PAH) who had previously been treated with epoprostenol, bosentan, and/or steroids. Treprostinil sodium was tested in these cells under the conditions described in Example 1 at concentrations of 1 pM, 10 pM, 100 pM, 1 nM, 10 nM, 100 nM, and 1 uM. The experiment was repeated four times and the results were averaged.

The nature of assay [4]: Fibroblast proliferation assay. It is filed as cell-based, human. Conditions: Homo sapiens, Fibroblast, read-out: inhibition of proliferation normalized to FBS-induced growth. The procedure: as §1, §2
[5] abbreviates: 1 uM test compound, 96 hours incubation, cell count, read-out: inhibition of proliferation normalized to FBS-induced growth.
Where [6] appears, read: 1 uM test compound, 96 hours incubation, cell count.

Molecules are shown by their SMILES. Where two headings read alike, the source gives them in different places.

This note sets out measurements from patent US20130210733A1, “METHODS OF TREATING LUNG DISEASE” (Cytokinetics, Inc., priority 2010, published 2013).

On to `CCCC[C@@H](NC(=O)[C@@H](Cc1cn(C(=O)OC)c2ccccc12)NC(=O)[C@H](CC(C)(C)C)NC(=O)N1[C@H](C)CCC[C@@H]1C)C(=O)O` [BQ788, reference compound], for which, in assay [1] (setting [5]), the inhibition at 1 µM was approximately 20%. Also, in assay [1], the “effect on proliferation (in words)” value is recorded as “inhibited proliferation of IPAH cells at higher concentrations”.

On to `Cc1ccc(C(=O)N(CCCN)[C@@H](c2oc3cc(Cl)ccc3c(=O)c2Cc2ccccc2)C(C)C)cc1` [Compound A, N-(3-Aminopropyl)-N-[(R)-(1-3-benzyl-7-chloro-4-oxo-4H-chromen-2-yl)-2-methyl-propyl]-4-methyl-benzamide], for which the “inhibition of proliferation normalized to FBS-induced growth” value in assay [1] (setting [6]) is reported as “approximately 70%”. The “effect on proliferation (in words)” value in assay [1] is listed as “inhibited proliferation of IPAH cells in a dose dependent manner”.

As to `CC(C)Oc1ccc(C(=O)N[C@H](CNC(=O)CN(C)C)Cc2ccc(-c3cn4cccc([C@H](C)O)c4n3)cc2)cc1Cl` [Compound B, 3-Chloro-N-{(1S)-2-[(N,N-dimethylglycyl)amino]-1-[(4-{8-[(1S)-1-hydroxyethyl]imidazo[1,2-c]pyridin-2-yl}phenyl)methyl]ethyl}-4-[(1-methylethyl)oxy]benzamide], the “inhibition of proliferation normalized to FBS-induced growth” value in assay [1] (setting [6]) was “approximately 95%”. Moreover, in assay [1], the “effect on proliferation (in words)” value was “inhibited proliferation of IPAH cells in a dose dependent manner”.

Consider `COC(c1ccccc1)(c1ccccc1)[C@H](Oc1nc(C)cc(C)n1)C(=O)O` [ambrisentan, reference compound], for which the inhibition at 1 µM in assay [1] (setting [5]) is approximately 25%.

For `COc1ccccc1Oc1c(NS(=O)(=O)c2ccc(C(C)(C)C)cc2)nc(-c2ncccn2)nc1OCCO` [bosentan, reference compound], the inhibition at 1 µM in assay [1] (setting [5]) was approximately 20%. Besides, the “effect on proliferation (in words)” value in assay [1] was “inhibited proliferation of IPAH HPASMC cells at higher concentrations”.

`CC#CCC(C)[C@H](O)/C=C/[C@@H]1[C@H]2C/C(=C/CCCC(=O)O)C[C@H]2C[C@H]1O` (stereo partly drawn) [iloprost, reference compound]: the inhibition at 1 µM in assay [1] (setting [5]) is approximately 40%. Also, the “effect on proliferation (in words)” value in assay [1] is “inhibited proliferation of IPAH HPASMC cells in a dose dependent manner”.

Take `CS(=O)(=O)O.Cc1ccc(C(=O)N(CCCN)[C@@H](c2nc3cc(Cl)ccc3c(=O)n2Cc2ccccc2)C(C)C)cc1` [ispinesib mesylate, N-(3-aminopropyl)-N-[(1R)-1-(3-benzyl-7-chloro-4-oxo-3,4-dihydroquinazolin-2-yl)-2-methylpropyl]-4-methylbenzamide monomethanesulfonate]: the inhibition at 1 µM in assay [2] is approximately 55%; in assay [1] (96 h, read-out: inhibition of proliferation normalized to FBS-induced growth, 1 uM test compound, 96 hours incubation, cell count) it was approximately 80%; in assay [1] (read-out: inhibition of proliferation normalized to FBS-induced growth, combination, 1 uM ispinesib mesylate and 10 nM treprostinil sodium) it was approximately 90%; in assay [1] (read-out: inhibition of proliferation normalized to FBS-induced growth, combination, 1 uM ispinesib mesylate and 100 nM BQ788), approximately 75%; in assay [1] (read-out: inhibition of proliferation normalized to FBS-induced growth, combination, 1 uM ispinesib mesylate and 100 nM ambrisentan) it was approximately 80%; in assay [1] (read-out: inhibition of proliferation normalized to FBS-induced growth, combination, 1 uM ispinesib mesylate and 100 nM bosentan), approximately 99%. Also, the inhibition at 1 µM in assay [1] (read-out: inhibition of proliferation normalized to FBS-induced growth, combination, 1 uM ispinesib mesylate, 100 nM ambrisentan and 100 nM BQ788) was approximately 95%; in assay [4] it was approximately 75%. In addition, the “effect on proliferation (in words)” value in assay [2] is “inhibited proliferation of fibroblasts in a dose dependent manner”; in assay [1], “inhibited proliferation of IPAH cells in a dose dependent manner”; in assay [3] it was “inhibited proliferation of fibroblasts in a dose dependent manner”. The “potency compared with treprostinil sodium (in words)” value in assay [2] (normal HPASMCs) is “slightly more potent than treprostinil sodium”; in assay [3] (lung fibroblasts derived from IPF patients with secondary PAH), “significantly more potent than treprostinil sodium”. In assay [1] (comparison of Examples 9, 16 and 18), the “potency in IPAH HPASMCs and fibroblasts compared with normal HPASMCs (in words)” value is “significantly more potent at inhibiting proliferation of IPAH HPASMCs and fibroblasts than normal HPASMCs”. In addition, the “effect of combined treatment versus single agents (in words)” value in assay [1] (ispinesib mesylate (1 pM to 1 uM) with 10 nM treprostinil sodium) and in assay [1] (ispinesib mesylate (1 pM to 1 uM) with 100 nM bosentan) was “enhanced the antiproliferative effects of either agent alone” each time.

`CCCCC[C@H](O)CC[C@@H]1[C@H]2Cc3cccc(OCC(=O)O)c3C[C@H]2C[C@H]1O` [treprostinil sodium, reference compound]: the inhibition at 1 µM is approximately 35% in assay [2] (1 uM test compound, normal HPASMC from healthy patients); approximately 60% in assay [1] (setting [5]); approximately 45% in assay [4] (1 uM test compound, lung fibroblasts from IPF patients with secondary PAH). Moreover, the “effect on proliferation (in words)” value in assay [2] is recorded as “inhibited normal HPASMC proliferation at higher concentrations”; in assay [1], “inhibited proliferation of IPAH HPASMC cells in a dose dependent manner”; in assay [3], “inhibited proliferation of fibroblasts at higher concentrations”.
